Experimental data reported in patent US20150299660A1, “DIFFERENTIATION OF HUMAN FIBROBLAST CELLS” (International Stem Cell Corporation, priority 2012, published 2015).

Columns and labels:
[1] = system: human fibroblast cells; assay: Differentiation of human fibroblast cells into adipocytes (lipid accumulation, Oil Red O); type: cell-based; conditions: Troglitazone in combination with other elements
Experimental: Fibroblast cells were grown in FibroLife S2 on standard tissue culture-treated plastic. Fibroblasts cells were plated at 20,000 cells/cm^2 and allowed the cells to grow to confluence (roughly 80,000 cells/cm^2) in approximately 2 days. Once the cells reached confluence the cell culture media was changed to AdipoLife Complete DifFactor 1 media. The cell culture media continued to be changed every 2 days. After 4 days the cell culture media was changed to AdipoLife Complete DifFactor 2 media for 17 days. Lipid accumulation was visible after 5 days culture in the AdipoLife Complete DifFactor 2 media. After 3 weeks of culture the cells were stained with Oil Red O stained to assay for accumulated lipids

[2] = system: MSC which have under gone chondrogenesis; assay: Cartilage / matrix formation by MSC which have undergone chondrogenesis, complex sugars in the media; type: cell-based; conditions: sugar in the media
Text: (§1) As used herein, the terms “complex sugar” and “complex sugars” includes monomeric and polymeric sugar chains. The use of sugars as a supplement enhancing extracellular matrix deposition is a unique aspect to the present invention. They can also be specific for cell type. As an example, previous studies have shown mesenchymal stem for chondrogenesis using a similar formulation as disclosed in the present invention, but without glucosamine sulfate. […] In a surprising aspect the present invention discloses that the use of certain complex sugars in the media massively increases the accumulation of calcium derived from osteocytes while the use of other sugars actively suppresses the accumulation of calcium. […] Fibroblasts allowed to acquire a MSC like state require galactose, glucuronic acid and glucosamine sulfate for cartilage formation, while hyaluronic acid will repress it. Examples of sugars are hyaluronic acid, galactose, glucosamine sulfate, glucuronic acid, mannose, sialic acid, chondroitin sulfate and galactosamine.

[3] = system: MSC which have undergone osteogenesis; assay: Calcium / matrix deposition by MSC which have undergone osteogenesis, complex sugars in the media; type: cell-based; conditions: sugar in the media
Text: as §1

[4] = system: Fibroblasts allowed to acquire a MSC like state; assay: Cartilage formation by fibroblasts allowed to acquire a MSC like state, complex sugars in the media; type: cell-based; conditions: sugar in the media
Text: as §1
Fibroblast cells were grown in FibroLife S2 on standard tissue culture-treated plastic. Fibroblasts cells were plated at 20,000 cells/cm^2 and allowed the cells to grow to 80-90% confluence actively proliferating.
The cells were centrifuged and the cells resuspended at 2.5×10^7 cells/ml in 1.5% alignate solution. The cells in the alignate solution are loaded into a syringe and applied to a stirred 100 mM calcium chloride solution to form microbeads. After 10 minutes, the calcium chloride solution was removed and the microbeads transferred to a 48 well plate. The microbeads were washed twice with 0.5 ml ChondroLife Chondrogenesis media (Table 7). The plates were incubated at 37° C., 5% CO2. The media was changed every 2-3 days for 3 weeks.
To examine the growth of the chondrocytes, the microbeads were fixed, frozen in OCT compound, cut in 5 μM sections and mounted on glass slides. The microbeads were stained with Alcian Blue to detect the presence of sulfated proteoglycans.

[5] = system: mesenchymal stem cells; conditions: shown previously; cited from earlier work
[6] = system: fibroblasts; conditions: has been shown; cited from earlier work

Compound | surface of the human cell culture covered with lipid-accumulating cells [1] [%] | effect on cartilage formation / matrix deposition [2] | effect on calcium deposition / matrix formation [3] | effect on cartilage formation [4] | effect on matrix secretion [5] | effect on matrix deposition [6]
Cc1c(C)c2c(c(C)c1O)CCC(C)(COc1ccc(CC3SC(=O)NC3=O)cc1)O2 (centres unmarked) [Troglitazone] | ≥ 70 |  |  |  |  | 
O=C[C@H](O)[C@@H](O)[C@@H](O)[C@H](O)CO [galactose] |  | vastly augments cartilage formation | vastly increased amounts of calcium deposition | require |  | 
N[C@H]1C(O)O[C@H](CO)[C@@H](O)[C@@H]1O.O=S(=O)(O)O (some centres unmarked) [glucosamine sulfate] |  | repress matrix deposition | vastly increased amounts of calcium deposition | require | detrimental to matrix secretion | 
O=C[C@H](O)[C@@H](O)[C@H](O)[C@H](O)C(=O)O [glucuronic acid] |  | vastly augments cartilage formation |  | require |  | 
hyaluronic acid |  | vastly augments cartilage formation | vastly increased amounts of calcium deposition | repress it |  | detrimental to matrix deposition
